Where “and” joins values, the source holds several entries; their conditions need not be identical. Identical values can stand only once.
Experiments:
[1] = system: parasite; parameters: method as in PMID 27602946; conditions: increasing concentrations of L-Phe; cited from earlier work
[2] = system: PfcFRS mutant (L550V); experiment: Kinetic parameter (Km) determination, malachite green; assay type: biochemical, Plasmodium falciparum; conditions: PfcFRS-L550V versus PfcFRS WT
Method: (§1) In both cases the reaction was carried out for 2 h at 37 °C. Data were fitted to Michaelis–Menten equations using Prism graph 6.0 software.

[3] = system: Plasmodium falciparum strain K1; experiment: microbe, parasite or virus in culture; assay type: cell-based; conditions: K1; for IC50: Plasmodium falciparum
Method: (§2) The cultivation of P. falciparum was conducted according to Trager’s method with some modification. Precisely, parasites were kept in culture flasks with RPMI1640 medium supplemented with 10% human plasma and 2% fresh human erythrocytes and incubated at 37 °C with the gas condition of 5% CO2 and 5% O2. The parasitemia (percentage of infected erythrocytes to total erythrocytes) were kept within 0.25–10%. Culture medium was replaced, and fresh erythrocytes were supplied every 2–3 days. Drug susceptibility test was conducted according to Desjardins’s method[18] with some modification. […] […] The plates were kept at 37 °C with the gas condition of 5% CO2 and 5% O2 for 72 h and then parasite growth was quantified with Makler’s method to detect plasmdoial lactate dehydrogenase[19] with some modification. Precisely, culture plates were kept in freezer overnight and then thawed at 37 °C to disrupt the erythrocytes and parasite cells. In the new 96-well titer plates, 100 μl of enzyme reaction solution (110 mM Li-lactate, 0.5 mM acetylpyridine-adenine dinucleotide, 50 mM Tris (pH 7.5), 10 mM EDTA, 50 mM KCl, and 15 g l^−1 PEG6000) and 20 µl of freeze-thaw culture were mixed in each well and then kept at room temperature for 30 min. The detection solution was prepared by mixing equal volume of 2 mg ml^−1 nitro blue tetrazolium and 0.1 mg ml^−1 phenazine ethosulfate and 20 µl of the solution was added to each well.

[4] = system: Plasmodium falciparum strain 3D7; experiment: Parasite growth inhibition (drug susceptibility test, pLDH readout); assay type: cell-based; conditions: 3D7; for IC50: Plasmodium falciparum
Method: as §2

[5] = system: N[C@@H](Cc1ccccc1)C(=O)O; experiment: Kinetic parameter (Km) determination, malachite green; assay type: biochemical, Plasmodium falciparum; conditions: other: PfcFRS mutant (L550V); ATP saturating 500 μM; pH 7.5; 37.0 °C
Method: as §1

[6] = target: the molecule itself; experiment: crystal structure; PvcFRS with BRD1389 and Mg2+, space group P2(1)2(1)2, one αβ heterodimer per asymmetric unit, 3.0 Å
[7] = target: the molecule itself; experiment: SEC; purified PvcFRS on a Superdex 200 analytical gel filtration column
[8] = substrate: N[C@@H](Cc1ccccc1)C(=O)O; experiment: Kinetic parameter (Km) determination, malachite green; assay type: biochemical, Plasmodium falciparum; conditions: other: PfcFRS WT; ATP saturating 500 μM; pH 7.5; 37.0 °C
Method: as §1

COc1ccc(NC(=O)N2CCCCN3[C@H](CN)[C@H](c4ccc(C#Cc5ccccc5)cc4)[C@@H]3C2)cc1 [BRD1095]
EC50 shift with L-Phe [1]: higher EC50 values with increasing concentrations of L-Phe

N[C@@H](Cc1ccccc1)C(=O)O [L-Phe, L-phenylalanine]
increase in Km value for L-Phe, mutant vs WT [2]: 10 fold and ~ 10 fold

C[C@@H]1CC[C@H]2[C@@H](C)C(=O)O[C@@H]3O[C@@]4(C)CC[C@@H]1[C@]32OO4 [Artemisinin, artemisinin]
% Parasite Growth ([3]; 0.000195313 ug/mL): 95.0%
% Parasite Growth ([3]; 0.000390625 ug/mL): 92.3%
% Parasite Growth ([3]; 0.00078125 ug/mL): 92.8%
% Parasite Growth ([3]; 0.0015625 ug/mL): 94.4%
% Parasite Growth ([3]; 0.003125 ug/mL): 92.0%
% Parasite Growth ([3]; 0.00625 ug/mL): 76.5%
% Parasite Growth ([3]; 0.0125 ug/mL): 6.1%
% Parasite Growth ([3]; 0.025 ug/mL): 2.9%
% Parasite Growth ([3]; 0.05 ug/mL): 3.5%
% Parasite Growth ([3]; 0.1 ug/mL): 3.3%
% Parasite Growth ([3]; 0.2 ug/mL): 3.6%
IC50 [3]: 0.00811 µg/mL and 28.7 nM
% Parasite Growth ([4]; 0.000195313 ug/mL): 91.8%
% Parasite Growth ([4]; 0.000390625 ug/mL): 88.1%
% Parasite Growth ([4]; 0.00078125 ug/mL): 90.1%
% Parasite Growth ([4]; 0.0015625 ug/mL): 91.8%
% Parasite Growth ([4]; 0.003125 ug/mL): 91.0%
% Parasite Growth ([4]; 0.00625 ug/mL): 92.6%
% Parasite Growth ([4]; 0.0125 ug/mL): 61.0%
% Parasite Growth ([4]; 0.025 ug/mL): 3.0%
% Parasite Growth ([4]; 0.05 ug/mL): 2.5%
% Parasite Growth ([4]; 0.1 ug/mL): 2.3%
% Parasite Growth ([4]; 0.2 ug/mL): 2.8%
IC50 [4]: 0.0143 µg/mL and 50.5 nM

CCN(CC)CCCC(C)Nc1ccnc2cc(Cl)ccc12 (centres unmarked) [Chloroquine, chloroquine]
IC50 [3]: 0.139 µg/mL and 269 nM
IC50 [4]: 0.00914 µg/mL and 17.7 nM

PfcFRS mutant (L550V) (Plasmodium falciparum 3D7; L550V)
Km [5]: 1.85 ± 0.84 µM

B1: PvcFRS αβ heterodimer as in the crystal (alpha subunit without residues 1-270) (complex, Plasmodium vivax)
chain 1: LTYLLIKNEEYKKYQVKKYNFFSSGKKMNKGNIHLLIRQMRTFKDVFVSLGFEEMNTHNYVESSFWCFDALYIPQQHPSRDLQDTFFIKVPEMCQEEFTDQSYIENVKRVHSVGDYGSFGWNYQWELKSTKKNVLRTHTTANSCRALFQLAKEYQKTGSIIPKKFFSIDRVFRNENLDSTHLAEFHQVEGLIIDRNLGLSHLIGTLSAFYKYIGISKLRFKPTFNPYTEPSMEVYGYHEENKKWLEVGNSGIFRPEMLRAMGFPPEVSVIAWGLSLERPTMIKYSIRNIRDLFGYRSVI
chain 2: MPTISVHEEDLIEKLGEKIEEEKLNDICFEFGIEIDDVEYKGEKKIYKIEVPANRYDLVCVEGLCRALKSFIGKYENVSYALLTNSEEACVKEKHFMRVDESVDERRSYVVSAVLKNVKMNENVYNNIIELQEKLHHNLGKKRILLAIGIHDYDKINFPVAYKFEEKEKINFIPLNETQNVNGNNFINFYQDNINLKSYLKIISDFEKFPVIVDAGGQILSLPPIINCDYTKITYDTRNLFIECTAIDRNKAEIAVNIICSMLSEYCTPKYSIHSFFVQYDKNHKAEKGNGYLYPVFKNKTLTCHMDYVRKLSGILNLSVKDVEPLLKKMMITSKVIDSSTFTVDVPFYRSDIMHFCDIVEDIAIAYGYGNIVSEKIEIAKKNSLSACTELFRNVLAECTYTEVMTNALLSKRENYDCMLRKHRSYDDRKINLDEYNPLAPPVQIMNSKTSEYEIVRTSLIVNMLKFVSANKHRELPLRFFEIGDVSYTTYDRTDTNAVNKRYLSVIFADKFTAGLEEAHGMLETVLKEFQLFSDYKIEEKSKENVAIRSDVFYKLVPKEDPSFLNERVVDIVLCPHNLKFGIMGIIHPKVLENFSIDIPVSVIEINIETIMDVLMM
notes: PvcFRS alpha subunit, Plasmodium vivax, gene PVX_081300; N-terminal domain (residues 1-270) absent in the crystal; PvcFRS beta subunit, Plasmodium vivax, gene PVX_090880, full length; also called heterodimer (αβ); PvcFRS-BRD1389 complex; source: E. coli B834, both subunits co-expressed, purified (Ni-NTA, heparin); crystallised with BRD1389 and MgCl2
binding result [6]: binds

B2: PvcFRS αβ heterodimer (full-length subunits) (complex, Plasmodium vivax)
chain 1: MQAKAQEEQKGEELSQFLQALEEEFALCQEGGGDKREADGPSLENAEAEELANRRAYYLQLKEERNVLVEESKHVTSLHMSSKHNIEHAKVLGMAKKLETLYYVVNHVRSFNTYQLTEEGKEYLRDGSPEHVTLRYVMEQEGCTLEDLKKLFGKKGEIGLNINLKKKKIELRKSDKRLFPHVEGSAHSLVDETRCYLQKVEAHGNDEGALVSHLKGILPPEKGEKKEEDEANNLIKELKKRKLIEAKKISYIYIIRTNLFTKEIKKQITDLTYLLIKNEEYKKYQVKKYNFFSSGKKMNKGNIHLLIRQMRTFKDVFVSLGFEEMNTHNYVESSFWCFDALYIPQQHPSRDLQDTFFIKVPEMCQEEFTDQSYIENVKRVHSVGDYGSFGWNYQWELKSTKKNVLRTHTTANSCRALFQLAKEYQKTGSIIPKKFFSIDRVFRNENLDSTHLAEFHQVEGLIIDRNLGLSHLIGTLSAFYKYIGISKLRFKPTFNPYTEPSMEVYGYHEENKKWLEVGNSGIFRPEMLRAMGFPPEVSVIAWGLSLERPTMIKYSIRNIRDLFGYRSVI
chain 2: MPTISVHEEDLIEKLGEKIEEEKLNDICFEFGIEIDDVEYKGEKKIYKIEVPANRYDLVCVEGLCRALKSFIGKYENVSYALLTNSEEACVKEKHFMRVDESVDERRSYVVSAVLKNVKMNENVYNNIIELQEKLHHNLGKKRILLAIGIHDYDKINFPVAYKFEEKEKINFIPLNETQNVNGNNFINFYQDNINLKSYLKIISDFEKFPVIVDAGGQILSLPPIINCDYTKITYDTRNLFIECTAIDRNKAEIAVNIICSMLSEYCTPKYSIHSFFVQYDKNHKAEKGNGYLYPVFKNKTLTCHMDYVRKLSGILNLSVKDVEPLLKKMMITSKVIDSSTFTVDVPFYRSDIMHFCDIVEDIAIAYGYGNIVSEKIEIAKKNSLSACTELFRNVLAECTYTEVMTNALLSKRENYDCMLRKHRSYDDRKINLDEYNPLAPPVQIMNSKTSEYEIVRTSLIVNMLKFVSANKHRELPLRFFEIGDVSYTTYDRTDTNAVNKRYLSVIFADKFTAGLEEAHGMLETVLKEFQLFSDYKIEEKSKENVAIRSDVFYKLVPKEDPSFLNERVVDIVLCPHNLKFGIMGIIHPKVLENFSIDIPVSVIEINIETIMDVLMM
notes: PvcFRS alpha subunit, Plasmodium vivax, gene PVX_081300, full length; PvcFRS beta subunit, Plasmodium vivax, gene PVX_090880, full length; The heterodimer that pairs with itself to the (αβ)2 heterotetramer in solution; also called heterodimer (αβ); source: E. coli B834, both subunits co-expressed, purified (Ni-NTA, heparin)
stoichiometry N [7]: 2

B3: PfcFRS wild type (WT) (Plasmodium falciparum 3D7) (protein)
chain: MSTNNVEEKKNEELYNLLNILEEEFNLSKIENKNNNKNDDGDDDDVNKREDNNNNEYYKKLKDEKGLDVLINEYTTSLKISKKYNIDHNKVMGMIKKLETLYYIINLIKSFNTYHLSDEGKQYLKEGSPEFIVIKYVIQNNKCTLEDLKKNLGKIGDIGLNTNLKNRTIQLNKADKCLTCNCNLHDIQDFTQIYLDIINQYGHDEELLFAHLKNKNHTKNALNNNEMKNSCKDNNIINNLIQDLKKRKLLEIKKNSYSHVIKTSIFKKDIKKQITDINYLLLKNEEYKKYDIKKYNFFSSGKKINKGNIHLLTKQMRTFKEIFFSLGFEEMETHNYVESSFWCFDALYIPQQHPSRDLQDTFFIKEPETCIDKFVDTEYIDNIKRVHTHGDYGSFGWNYKWKLEESKKNVLRTHTTANSCRALFKLAKEYKEAGCIKPKKYFSIDRVFRNENLDSTHLAEFHQVEGLIIDKNIGLSHLIGTLAAFYKHIGIHKLKFKPTFNPYTEPSMEIYGYHEQSKKWLEVGNSGIFRPEMLRSMGFSEEVSVIAWGLSLERPTMIKYNIKNIRDLFGYKSVV
Km [8]: 0.25 ± 0.017 µM

From publication PMC7803973, “Structural basis of malaria parasite phenylalanine tRNA-synthetase inhibition by bicyclic azetidines” (Nature Communications, 2021)
